In patent US12559506B2, “Indazole based compounds and associated methods of use” (Arvinas Operations, Inc., priority 2021, dated 2026):
Where two headings read alike, the source gives them in different places.

Assays:
G2019S LRRK2 = target: T1, G2019S LRRK2 (Homo sapiens, UniProt Q5S007, G2019S); experiment: LRRK2 degradation assay, HiBit-tagged G2019S LRRK2 expressed from plasmid in HEK293 cells (Nano-Glo Dual-Luciferase); assay type: cell-based; details: 24 hours
T1 construct: expressed in transfected cells; host or cells: HEK293 (ATCC CRL-1573), transient transfection, mammalian expression vector with ubiquitin promoter
T1 sequence (Q5S007 whole entry G2019S): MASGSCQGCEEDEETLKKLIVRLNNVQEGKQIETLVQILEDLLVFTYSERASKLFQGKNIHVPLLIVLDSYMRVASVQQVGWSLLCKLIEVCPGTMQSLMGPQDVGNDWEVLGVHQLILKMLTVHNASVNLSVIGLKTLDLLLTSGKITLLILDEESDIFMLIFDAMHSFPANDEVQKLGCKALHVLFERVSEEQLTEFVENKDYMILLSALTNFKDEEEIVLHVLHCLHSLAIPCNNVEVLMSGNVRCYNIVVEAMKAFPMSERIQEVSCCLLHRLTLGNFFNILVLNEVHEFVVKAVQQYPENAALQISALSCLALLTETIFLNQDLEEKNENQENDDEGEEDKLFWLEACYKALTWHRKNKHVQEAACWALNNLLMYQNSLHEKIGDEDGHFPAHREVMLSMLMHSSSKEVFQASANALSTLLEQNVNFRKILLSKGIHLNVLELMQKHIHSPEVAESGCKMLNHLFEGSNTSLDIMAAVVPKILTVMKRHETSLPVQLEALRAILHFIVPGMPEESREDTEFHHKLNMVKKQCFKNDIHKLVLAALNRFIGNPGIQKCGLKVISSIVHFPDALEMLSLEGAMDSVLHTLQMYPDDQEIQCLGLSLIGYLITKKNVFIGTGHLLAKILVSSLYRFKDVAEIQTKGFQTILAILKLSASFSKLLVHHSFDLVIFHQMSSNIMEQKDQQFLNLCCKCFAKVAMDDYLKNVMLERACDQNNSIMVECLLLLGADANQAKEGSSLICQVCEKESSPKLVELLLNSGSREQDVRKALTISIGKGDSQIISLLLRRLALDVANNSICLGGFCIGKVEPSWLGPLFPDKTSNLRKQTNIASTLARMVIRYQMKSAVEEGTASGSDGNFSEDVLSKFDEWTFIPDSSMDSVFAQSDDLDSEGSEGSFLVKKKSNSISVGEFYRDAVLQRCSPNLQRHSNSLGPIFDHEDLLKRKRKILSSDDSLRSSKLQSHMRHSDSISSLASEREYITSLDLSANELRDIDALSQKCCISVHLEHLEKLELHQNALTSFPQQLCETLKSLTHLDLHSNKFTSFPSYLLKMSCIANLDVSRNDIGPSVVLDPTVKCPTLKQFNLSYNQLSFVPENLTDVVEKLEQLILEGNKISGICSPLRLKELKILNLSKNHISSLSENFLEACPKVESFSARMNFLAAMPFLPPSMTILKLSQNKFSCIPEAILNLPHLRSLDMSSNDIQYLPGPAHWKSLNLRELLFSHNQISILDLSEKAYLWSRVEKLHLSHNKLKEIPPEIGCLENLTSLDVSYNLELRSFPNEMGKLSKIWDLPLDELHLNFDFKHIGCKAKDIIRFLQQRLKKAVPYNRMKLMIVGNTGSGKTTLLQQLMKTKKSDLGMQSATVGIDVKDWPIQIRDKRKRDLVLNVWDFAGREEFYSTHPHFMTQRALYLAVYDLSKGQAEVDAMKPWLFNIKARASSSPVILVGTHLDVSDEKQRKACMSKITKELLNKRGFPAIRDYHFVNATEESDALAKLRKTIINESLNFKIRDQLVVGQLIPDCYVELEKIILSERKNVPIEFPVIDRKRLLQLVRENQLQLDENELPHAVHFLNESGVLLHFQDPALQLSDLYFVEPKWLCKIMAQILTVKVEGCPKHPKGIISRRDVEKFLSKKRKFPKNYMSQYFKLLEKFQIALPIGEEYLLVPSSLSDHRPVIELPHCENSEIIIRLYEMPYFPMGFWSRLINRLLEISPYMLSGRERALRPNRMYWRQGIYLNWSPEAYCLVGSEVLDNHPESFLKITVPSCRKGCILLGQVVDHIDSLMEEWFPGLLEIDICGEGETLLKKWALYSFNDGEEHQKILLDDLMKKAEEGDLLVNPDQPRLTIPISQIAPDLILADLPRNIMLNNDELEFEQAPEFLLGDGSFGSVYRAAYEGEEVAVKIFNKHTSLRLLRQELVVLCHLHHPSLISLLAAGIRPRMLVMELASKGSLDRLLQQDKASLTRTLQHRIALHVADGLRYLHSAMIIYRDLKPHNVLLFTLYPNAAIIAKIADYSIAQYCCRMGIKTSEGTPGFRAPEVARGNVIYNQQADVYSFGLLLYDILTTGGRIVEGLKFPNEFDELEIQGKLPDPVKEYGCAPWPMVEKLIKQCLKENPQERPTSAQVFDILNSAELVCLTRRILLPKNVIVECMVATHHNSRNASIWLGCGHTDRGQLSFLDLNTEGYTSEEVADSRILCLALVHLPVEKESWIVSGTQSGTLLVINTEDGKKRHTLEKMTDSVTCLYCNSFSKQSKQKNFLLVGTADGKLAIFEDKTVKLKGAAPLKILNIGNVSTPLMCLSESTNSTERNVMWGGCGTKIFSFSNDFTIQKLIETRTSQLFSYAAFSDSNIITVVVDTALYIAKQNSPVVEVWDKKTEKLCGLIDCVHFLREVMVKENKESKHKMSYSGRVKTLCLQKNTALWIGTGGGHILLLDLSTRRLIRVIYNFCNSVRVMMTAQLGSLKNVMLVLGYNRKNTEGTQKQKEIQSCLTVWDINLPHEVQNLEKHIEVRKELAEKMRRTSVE
Outline: (§1)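 HEK293 cells co-transfected with C-terminal HiBiT-tagged LRRK2 (WT or G2019S, ubiquitin promoter) and firefly luciferase, then dosed 24 h at 37 °C. HiBiT/firefly ratio normalized to DMSO median; DC50 and Dmax from per-plate curve fits, six replicates over two days.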

wildtype LRRK2 = target: T2, wildtype LRRK2 (Homo sapiens, UniProt Q5S007); experiment: LRRK2 degradation assay, HiBit-tagged wildtype LRRK2 expressed from plasmid in HEK293 cells (Nano-Glo Dual-Luciferase); assay type: cell-based; details: 24 hours; for Dmax: read-out: **WT Dmax (%); for DC50: read-out: *WT DC50
T2 construct: expressed in transfected cells; host or cells: HEK293 (ATCC CRL-1573), transient transfection, mammalian expression vector with ubiquitin promoter
T2 sequence (Q5S007 whole entry): as the sequence (Q5S007 whole entry G2019S) above, with S2019G counted along it
Outline: as §1

[1] = HiBit-tagged G2019S LRRK2 in HEK293 cells
[2] = HiBit-tagged wildtype LRRK2 in HEK293 cells
[3] = HiBit-tagged G2019S LRRK2, HEK293 cells
[4] = HiBit-tagged wildtype LRRK2, HEK293 cells

Compound | DC50 (G2019S LRRK2; [1]) [nM] | Dmax (G2019S LRRK2; [1]) [%] | Dmax (wildtype LRRK2; [2]) [%] | DC50 (wildtype LRRK2; [2]) [nM] | DC50 (G2019S LRRK2; [3]) [nM] | Dmax (G2019S LRRK2; [3]) [%] | Dmax (wildtype LRRK2; [4]) [%] | DC50 (wildtype LRRK2; [4]) [nM]
CC1(Oc2ccc3[nH]nc(-c4cc(N5CCN(CC67CC(CN8CCN(c9ccc%10c(c9)C(=O)N(C9CCC(=O)NC9=O)C%10=O)CC8)(C6)C7)CC5)ncn4)c3c2)CC1 (centres unmarked) [Compound 124, 2-(2,6-dioxo-3-piperidyl)-5-[4-[[3-[[4-[6-[5-(1-methylcyclopropoxy)-2H-indazol-3-yl]pyrimidin-4-yl]piperazin-1-yl]methyl]-1-bicyclo[1.1.1]pentanyl]methyl]piperazin-1-yl]isoindoline-1,3-dione] | 10 to 50 | < 50 | < 50 | < 10 | – | – | – | –
CC1(Oc2ccc3n[nH]c(-c4cc(N5CCN(CC6(F)CCN(C(=O)C7CN(c8ccc9c(c8)C(=O)N(C8CCC(=O)NC8=O)C9=O)C7)CC6)CC5)ncn4)c3c2)CC1 (centres unmarked) [Compound 136, 2-(2,6-dioxo-3-piperidyl)-5-[3-[4-fluoro-4-[[4-[6-[5-(1-methylcyclopropoxy)-2H-indazol-3-yl]pyrimidin-4-yl]piperazin-1-yl]methyl]piperidine-1-carbonyl]azetidin-1-yl]isoindoline-1,3-dione] | < 10 | 50 to 70 | 50 to 70 | < 10 | – | – | – | –
CC1(Oc2ccc3[nH]nc(-c4cc(N5CCC(CN6CC7(CN(CC8CCN(c9ccc%10c(c9)C(=O)N(C9CCC(=O)NC9=O)C%10=O)CC8)C7)C6)CC5)ncn4)c3c2)CC1 (centres unmarked) [Compound 175, 2-(2,6-dioxo-3-piperidyl)-5-[4-[[2-[[1-[6-[5-(1-methylcyclopropoxy)-1H-indazol-3-yl]pyrimidin-4-yl]-4-piperidyl]methyl]-2,6-diazaspiro[3.3]heptan-6-yl]methyl]-1-piperidyl]isoindoline-1,3-dione] | – | – | – | – | < 10 | 50 to 70 | 50 to 70 | < 10
CC1(Oc2ccc3[nH]nc(-c4cc(N5CCC(CN6CCN(CC7CCN(c8cc9c(cc8F)C(=O)N(C8CCC(=O)NC8=O)C9=O)CC7)CC6)CC5)ncn4)c3c2)CC1 (centres unmarked) [Compound 107, 2-(2,6-dioxo-3-piperidyl)-5-fluoro-6-[4-[[4-[[1-[6-[5-(1-methylcyclopropoxy)-1H-indazol-3-yl]pyrimidin-4-yl]-4-piperidyl]methyl]piperazin-1-yl]methyl]-1-piperidyl]isoindoline-1,3-dione] | 10 to 50 | 50 to 70 | < 50 | < 10 | – | – | – | –
C[C@H]1CN(c2cc(-c3n[nH]c4ccc(OC5(C)CC5)cc34)ncn2)CCN1CC1CCN(CCCOc2cccc3c2C(=O)N(C2CCC(=O)NC2=O)C3=O)CC1 (stereo partly drawn) [Compound 139, 2-(2,6-dioxo-3-piperidyl)-4-[3-[4-[[(2S)-2-methyl-4-[6-[5-(1-methylcyclopropoxy)-2H-indazol-3-yl]pyrimidin-4-yl]piperazin-1-yl]methyl]-1-piperidyl]propoxy]isoindoline-1,3-dione] | 10 to 50 | < 50 | < 50 | 10 to 50 | – | – | – | –
CC1(Oc2ccc3n[nH]c(-c4cc(N5CCN(CC6(F)CCN(CC7CN(c8ccc9c(c8)C(=O)N(C8CCC(=O)NC8=O)C9=O)C7)CC6)CC5)ncn4)c3c2)CC1 (centres unmarked) [Compound 135, 2-(2,6-dioxo-3-piperidyl)-5-[3-[[4-fluoro-4-[[4-[6-[5-(1-methylcyclopropoxy)-2H-indazol-3-yl]pyrimidin-4-yl]piperazin-1-yl]methyl]-1-piperidyl]methyl]azetidin-1-yl]isoindoline-1,3-dione] | < 10 | 50 to 70 | < 50 | < 10 | – | – | – | –
CC1(Oc2ccc3[nH]nc(-c4cc(N5CC(CN6CCN(CC7CCN(c8ccc9c(c8)C(=O)N(C8CCC(=O)NC8=O)C9=O)CC7)CC6)C5)ncn4)c3c2)CC1 (centres unmarked) [Compound 129, 2-(2,6-dioxo-3-piperidyl)-5-[4-[[4-[[1-[6-[5-(1-methylcyclopropoxy)-1H-indazol-3-yl]pyrimidin-4-yl]azetidin-3-yl]methyl]piperazin-1-yl]methyl]-1-piperidyl]isoindoline-1,3-dione] | < 10 | ≥ 70 | ≥ 70 | < 10 | – | – | – | –
CC1(Oc2ccc3[nH]nc(-c4cc(N5CCN(C[C@H]6CCN(CC7CCN(c8ccc9c(c8)C(=O)N(C8CCC(=O)NC8=O)C9=O)CC7)C(=O)C6)CC5)ncn4)c3c2)CC1 (single isomer, unassigned) [Compound 104] | < 10 | < 50 | 50 to 70 | < 10 | – | – | – | –
CC1(Oc2ccc3[nH]nc(-c4cc(N5CCC(CN6CCN(CC7CCN(c8ccc9c(c8)C(=O)N(C8CCC(=O)NC8=O)C9=O)CC7)CC6)CC5)ncc4F)c3c2)CC1 (centres unmarked) [Compound 99, 2-(2,6-dioxo-3-piperidyl)-5-[4-[[4-[[1-[5-fluoro-4-[5-(1-methylcyclopropoxy)-1H-indazol-3-yl]-2-pyridyl]-4-piperidyl]methyl]piperazin-1-yl]methyl]-1-piperidyl]isoindoline-1,3-dione] | 50 to 100 | < 50 | < 50 | 50 to 100 | – | – | – | –
C[C@H]1CN(c2cc(-c3[nH]nc4ccc(OC5(C)CC5)cc34)ncn2)CCN1Cc1cn(CC2CCN(c3ccc4c(c3)C(=O)N(C3CCC(=O)NC3=O)C4=O)CC2)nn1 (stereo partly drawn) [Compound 168, 2-(2,6-dioxo-3-piperidyl)-5-[4-[[4-[[(2S)-2-methyl-4-[6-[5-(1-methylcyclopropoxy)-2H-indazol-3-yl]pyrimidin-4-yl]piperazin-1-yl]methyl]triazol-1-yl]methyl]-1-piperidyl]isoindoline-1,3-dione] | – | – | – | – | 10 to 50 | < 50 | < 50 | < 10
CC1(Oc2ccc3[nH]nc(-c4cc(N5CCN(C[C@@H]6CCN(CC7CCN(c8ccc9c(c8)C(=O)N(C8CCC(=O)NC8=O)C9=O)CC7)C(=O)C6)CC5)ncn4)c3c2)CC1 (single isomer, unassigned) [Compound 103] | < 10 | 50 to 70 | 50 to 70 | < 10 | – | – | – | –
CC1(Oc2ccc3[nH]nc(-c4cc(N5CC(CC6CCN(CC7CCN(c8ccc9c(c8)C(=O)N(C8CCC(=O)NC8=O)C9=O)CC7)CC6)C5)ncn4)c3c2)CC1 (centres unmarked) [Compound 164, 2-(2,6-dioxo-3-piperidyl)-5-[4-[[4-[[1-[6-[5-(1-methylcyclopropoxy)-1H-indazol-3-yl]pyrimidin-4-yl]azetidin-3-yl]methyl]-1-piperidyl]methyl]-1-piperidyl]isoindoline-1,3-dione] | – | – | – | – | < 10 | ≥ 70 | 50 to 70 | < 10
CC1(Oc2ccc3[nH]nc(-c4ccnc(N5CCOC6(CN(CC7CCN(CC8CCN(c9ccc%10c(c9)C(=O)N(C9CCC(=O)NC9=O)C%10=O)CC8)CC7)C6)C5)c4)c3c2)CC1 (centres unmarked) [Compound 151, 2-(2,6-dioxo-3-piperidyl)-5-[4-[[4-[[8-[4-[5-(1-methylcyclopropoxy)-1H-indazol-3-yl]-2-pyridyl]-5-oxa-2,8-diazaspiro[3.5]nonan-2-yl]methyl]-1-piperidyl]methyl]-1-piperidyl]isoindoline-1,3-dione] | < 10 | 50 to 70 | 50 to 70 | < 10 | – | – | – | –
C[C@H]1CN(c2cc(-c3n[nH]c4ccc(OC5(C)CC5)cc34)ncn2)CCN1CC1CN(CC2CCN(c3ccc4c(c3)C(=O)N(C3CCC(=O)NC3=O)C4=O)CC2)C1 (stereo partly drawn) [Compound 122, 2-(2,6-dioxo-3-piperidyl)-5-[4-[[3-[[(2S)-2-methyl-4-[6-[5-(1-methylcyclopropoxy)-1H-indazol-3-yl]pyrimidin-4-yl]piperazin-1-yl]methyl]azetidin-1-yl]methyl]-1-piperidyl]isoindoline-1,3-dione] | < 10 | 50 to 70 | 50 to 70 | < 10 | – | – | – | –
CC1(Oc2ccc3n[nH]c(-c4cc(N5CCN(Cc6ccc(CN7CCN(c8ccc9c(c8)C(=O)N(C8CCC(=O)NC8=O)C9=O)CC7)cc6)CC5)ncn4)c3c2)CC1 (centres unmarked) [Compound 169, 2-(2,6-dioxo-3-piperidyl)-5-[4-[[4-[[4-[6-[5-(1-methylcyclopropoxy)-2H-indazol-3-yl]pyrimidin-4-yl]piperazin-1-yl]methyl]phenyl]methyl]piperazin-1-yl]isoindoline-1,3-dione] | – | – | – | – | 10 to 50 | 50 to 70 | < 50 | < 10
CC1(Oc2ccc3[nH]nc(-c4cc(N5CCN(CC6(F)CCN(CC7CCN(c8ccc9c(c8)C(=O)N(C8CCC(=O)NC8=O)C9=O)CC7)CC6)CC5)ncn4)c3c2)CC1 (centres unmarked) [Compound 79, 2-(2,6-dioxo-3-piperidyl)-5-[4-[[4-fluoro-4-[[4-[6-[5-(1-methylcyclopropoxy)-1H-indazol-3-yl]pyrimidin-4-yl]piperazin-1-yl]methyl]-1-piperidyl]methyl]-1-piperidyl]isoindoline-1,3-dione] | < 10 | 50 to 70 | < 50 | < 10 | – | – | – | –
CC1(Oc2ccc3n[nH]c(-c4cc(N5CCN(CC6CC7(CCN(CC8CCN(c9ccc%10c(c9)C(=O)N(C9CCC(=O)NC9=O)C%10=O)CC8)CC7)C6)CC5)ncn4)c3c2)CC1 (centres unmarked) [Compound 177, 2-(2,6-dioxo-3-piperidyl)-5-[4-[[2-[[4-[6-[5-(1-methylcyclopropoxy)-2H-indazol-3-yl]pyrimidin-4-yl]piperazin-1-yl]methyl]-7-azaspiro[3.5]nonan-7-yl]methyl]-1-piperidyl]isoindoline-1,3-dione] | – | – | – | – | 10 to 50 | 50 to 70 | 50 to 70 | 10 to 50
